According to PubChem BioAssay (NCI):
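A five-concentration, 48-hour dose response in 96-well plates underlies each endpoint, interpolated linearly between surrounding concentrations. Abbreviation: GI50, concentration required for 50% inhibition of growth. TGI marks complete inhibition of growth.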

Columns and labels:
Assay in all cases: NCI-60 cell line screen, 48 h
MDA-MB-231 breast = tested on: MDA-MB-231 breast
ACHN renal = tested on: ACHN renal
UO-31 renal = tested on: UO-31 renal
BT-549 breast = tested on: BT-549 breast
A549 NSCLC = tested on: A549 NSCLC
K-562 leukemia = tested on: K-562 leukemia
SK-OV-3 ovarian = tested on: SK-OV-3 ovarian
LOX IMVI melanoma = tested on: LOX IMVI melanoma
NCI/ADR-RES ovarian = tested on: NCI/ADR-RES ovarian
HL-60(TB) leukemia = tested on: HL-60(TB) leukemia

| SMILES | TGI (MDA-MB-231 breast) [µM] | TGI (ACHN renal) [µM] | TGI (UO-31 renal) [µM] | TGI (BT-549 breast) [µM] | TGI (A549 NSCLC) [µM] | TGI (K-562 leukemia) [µM] | TGI (SK-OV-3 ovarian) [µM] | TGI (LOX IMVI melanoma) [µM] | TGI (NCI/ADR-RES ovarian) [µM] | GI50 (MDA-MB-231 breast) [µM] | GI50 (ACHN renal) [µM] | GI50 (HL-60(TB) leukemia) [µM] | GI50 (UO-31 renal) [µM] | GI50 (BT-549 breast) [µM] | GI50 (A549 NSCLC) [µM] | GI50 (K-562 leukemia) [µM] | GI50 (SK-OV-3 ovarian) [µM] | GI50 (NCI/ADR-RES ovarian) [µM] | TGI (HL-60(TB) leukemia) [µM] | GI50 (LOX IMVI melanoma) [µM] |
| --- | --- | --- | --- | --- | --- | --- | --- | --- | --- | --- | --- | --- | --- | --- | --- | --- | --- | --- | --- | --- |
| O=C1C[C@H](CCC(=O)OCc2ccccc2)NC(=O)C[C@H](CCC(=O)OCc2ccccc2)NC(=O)C[C@H](CCC(=O)OCc2ccccc2)N1 | 78.3 | 69.4 | > 100 | > 100 | > 100 | > 100 | 29 | > 100 | > 100 | – | – | – | – | – | – | – | – | – | – | – |
| COc1cc2c(cc1OCCCN1CCN(c3ncnc4ccccc34)CC1)N=CC1CCCN1C2=O (stereo not given) | 0.0736 | 0.564 | 0.558 | 0.0895 | > 47.9 | – | 6.78 | – | 7.11 | 0.0205 | 0.0426 | 0.0307 | 0.0754 | 0.0248 | 0.0356 | 0.0262 | 0.0326 | 0.373 | – | – |
| Fc1c(F)c(C(F)(F)F)c(F)c(F)c1N/N=C/c1cn(Cc2ccccc2)c2ccccc12 | 45.6 | 81.7 | 52.9 | 80.7 | 72.7 | 87.1 | 48.4 | 47.3 | 59.1 | – | – | – | – | – | – | – | – | – | 52.6 | – |
| COc1ccc(C2C(C=O)C(N3CCN(C)CC3)=Nc3nc4ccccc4n32)cc1 (stereo not given) | 31.4 | 41.8 | 32.4 | 29.4 | 38.5 | 14.9 | – | 34.1 | 53.7 | – | – | – | – | – | – | – | – | – | 18.4 | – |
| O=S(O)c1cc(Cl)cc(Cl)c1OCc1ccccc1 | – | > 100 | > 100 | – | – | > 100 | > 100 | > 100 | – | – | – | – | – | – | – | – | – | – | > 100 | – |
| CNC(=O)Nc1ccccc1 | > 100 | > 100 | > 100 | > 100 | > 100 | > 100 | – | > 100 | > 100 | – | – | – | – | – | – | – | – | – | > 100 | – |
| O=C(COc1ccc(Cl)cc1Cl)N/N=C/C=C/c1ccc([N+](=O)[O-])o1 | 95.6 | > 100 | > 100 | 58 | > 100 | > 100 | 59.6 | 38.9 | > 100 | – | – | – | – | – | – | – | – | – | > 100 | – |
| C[N+](C)(CCO)CCN1c2ccccc2Sc2ccccc21 | > 10 | > 10 | > 10 | – | > 10 | > 10 | > 10 | > 10 | > 10 | – | – | – | – | – | – | – | – | – | > 10 | – |
| COc1ccc2nc3ccccc3c(NCc3ccc(C)cc3)c2c1 | 4.12 | 3.03 | 2.65 | 4.7 | 4.71 | > 100 | 8.41 | 2.95 | 4.98 | 1.76 | 1.58 | 2.03 | 1.28 | 2.01 | 1.96 | 1.61 | 2.58 | 1.79 | 4.58 | 1.54 |
| Clc1ccc(-c2nnc(-c3c(Cl)c(Cl)c(Cl)c(Cl)c3-c3nc4ccccc4[nH]3)o2)cc1 | – | > 100 | > 100 | > 100 | – | > 100 | > 100 | > 100 | > 100 | – | – | – | – | – | – | – | – | – | > 100 | – |
| COc1cc2c(cc1OC)-c1cc3ccc(OC)c(OC)c3c[n+]1CC2 | > 100 | > 100 | > 100 | > 100 | > 100 | > 100 | > 100 | – | > 100 | – | – | – | – | – | – | – | – | – | > 100 | – |
| COc1ccc2c(c1)CC[C@@H]1[C@@H]2CC[C@]2(C)C(=O)/C(=C/c3ccc(O)c(OC)c3)C[C@@H]12 | > 100 | > 100 | > 100 | – | > 100 | > 100 | > 100 | > 100 | > 100 | – | – | – | – | – | – | – | – | – | > 100 | – |
| Cn1c(=O)c2c(nc(NCCNc3nc4c(c(=O)n(C)c(=O)n4C)n3C)n2C)n(C)c1=O | > 100 | > 100 | > 100 | > 100 | > 100 | > 100 | – | > 100 | > 100 | – | – | – | – | – | – | – | – | – | – | – |
| CCOC(=O)c1c(CN2CCCC2)n(-c2ccccc2)c2cc(Br)c(OC)cc12 | 70.4 | 35.3 | 29.8 | 58.1 | 28.8 | 43.3 | 78.3 | 27.5 | 80.8 | – | – | – | – | – | – | – | – | – | 36 | – |
| N#C[S-].[Ce+3].c1cnc2c(c1)ccc1cccnc12.c1cnc2c(c1)ccc1cccnc12.c1cnc2c(c1)ccc1cccnc12 | – | 11.7 | 11.5 | – | 10.1 | > 100 | 13.5 | 10.9 | – | – | – | – | – | – | – | – | – | – | 48.3 | – |
| NC(CC(=O)O)(Cc1ccccc1)C(=O)O (stereo not given) | > 100 | > 100 | > 100 | > 100 | > 100 | > 100 | > 100 | > 100 | > 100 | – | – | – | – | – | – | – | – | – | > 100 | – |
| CC(=O)C1=C(O)CCC1=O | – | > 100 | > 100 | > 100 | > 100 | > 100 | > 100 | > 100 | > 100 | – | – | – | – | – | – | – | – | – | > 100 | – |
| C[C@]12CCC(=O)C=C1CC[C@@H]1[C@@H]2[C@@H](O)C[C@@]2(C)[C@H]1CC[C@]2(O)C(=O)COC(=O)C1CCCC1 | > 100 | > 100 | > 100 | > 100 | > 100 | > 100 | > 100 | > 100 | > 100 | – | – | – | – | – | – | – | – | – | > 100 | – |
| Cc1ccc(SSCCCCCS(=O)O)cc1 | – | > 100 | 67.2 | – | – | > 100 | > 100 | 30.9 | – | – | – | – | – | – | – | – | – | – | 55.8 | – |
| O=c1/c(=C/c2ccc([N+](=O)[O-])o2)sc2n1[C@@H](c1ccc3c(c1)OCO3)C=C(c1cc(F)c(Cl)cc1Cl)N=2 | 50.4 | 33.2 | 42.2 | 35.1 | > 100 | > 100 | > 100 | 42.9 | > 100 | – | – | – | – | – | – | – | – | – | 45.5 | – |
| O=C(NNC(=O)c1nsc2ccccc12)c1ccc(Cl)cc1 | – | > 100 | 55.4 | – | 45.9 | 35.1 | – | 36.5 | – | – | – | – | – | – | – | – | – | – | 49.8 | – |
